The text below walks through data of paper PMC5382279, “Glutaredoxin catalysis requires two distinct glutathione interaction sites” (Nature Communications, 2017).

What is called Km is the concentration of substrate that gives half-maximal velocity.

Numbering of substitutions follows the chain as printed. In names and notes the source's numbering stands. Several values for one entry are separate records, joined by “and”; a condition that tells them apart may be missing. Equal values may be shown once. Numbered stars: 1 amine (or outer) side, 2 acyl side, 3 side chain; on linkers, the order of the positions; unused ones are H or OH. Square brackets hold non-standard residues; d marks the D form. Peptide text beside a SMILES is read from it. γGlu = O=C(O)[C@H](CCC(=O)[*:2])N[*:1]; Abu = CC[C@H](N)C(=O)O

Data set [1] concerns the target T1, ScGrx7 (Saccharomyces cerevisiae, UniProt P38068, K105E).
T1 construct: gene GRX7; N-terminal MRGS(H)6 tag kept, E. coli XL1-Blue, pQE30/SCGRX7 double stop-codon construct
T1 sequence (P38068 33-203 K105E): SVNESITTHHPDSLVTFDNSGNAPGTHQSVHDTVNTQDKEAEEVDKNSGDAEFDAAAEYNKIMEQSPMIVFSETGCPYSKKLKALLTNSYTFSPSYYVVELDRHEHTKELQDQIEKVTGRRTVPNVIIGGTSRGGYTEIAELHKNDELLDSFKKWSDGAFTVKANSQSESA
Kind of data set: coupled NADPH/glutathione reductase assay, […] nm, GSSCys assay. In kind it is biochemical. To be noted: varied GSSCys 25-200 uM at fixed GSH 0.05-1.0 mM; 0.1 M Tris/HCl, 1 mM EDTA, pH 8.0, 25 C; ping-pong.

The target in data set [2] is T2, ScGrx7 (Saccharomyces cerevisiae, UniProt P38068, E170K).
T2 construct: gene GRX7; N-terminal MRGS(H)6 tag kept, E. coli XL1-Blue, pQE30/SCGRX7 double stop-codon construct
T2 sequence (P38068 33-203 E170K): T1 sequence (P38068 33-203 K105E) with E73K, E138K
Described as above. In kind it is biochemical. To be noted: varied GSSCys 25-200 uM at fixed GSH 0.05-1.0 mM; 0.1 M Tris/HCl, 1 mM EDTA, pH 8.0, 25 C; ping-pong.

Data set [3] addresses T3, ScGrx7 (Saccharomyces cerevisiae, UniProt P38068).
T3 construct: gene GRX7; N-terminal MRGS(H)6 tag kept, E. coli XL1-Blue, pQE30/SCGRX7 double stop-codon construct
T3 sequence (P38068 33-203): T1 sequence (P38068 33-203 K105E) with E73K
The data set is described as above. In kind it is biochemical. As to conditions: varied GSSCys 25-200 uM at fixed GSH 0.05-1.0 mM; 0.1 M Tris/HCl, 1 mM EDTA, pH 8.0, 25 C; ping-pong.

Data set [4] concerns the target T4, ScGrx7 (Saccharomyces cerevisiae, UniProt P38068, E170A).
T4 construct: gene GRX7; N-terminal MRGS(H)6 tag kept, E. coli XL1-Blue, pQE30/SCGRX7 double stop-codon construct
T4 sequence (P38068 33-203 E170A): T1 sequence (P38068 33-203 K105E) with E73K, E138A
The description is as above. In kind it is biochemical. As to conditions: varied GSSCys 25-200 uM at fixed GSH 0.05-1.0 mM; 0.1 M Tris/HCl, 1 mM EDTA, pH 8.0, 25 C; ping-pong.

In data set [5] the target is T5, ScGrx7 (Saccharomyces cerevisiae, UniProt P38068, K105A).
T5 construct: gene GRX7; N-terminal MRGS(H)6 tag kept, E. coli XL1-Blue, pQE30/SCGRX7 double stop-codon construct
T5 sequence (P38068 33-203 K105A): T1 sequence (P38068 33-203 K105E) with E73A
The data set is described as above. In kind it is biochemical. As to conditions: varied GSSCys 25-200 uM at fixed GSH 0.05-1.0 mM; 0.1 M Tris/HCl, 1 mM EDTA, pH 8.0, 25 C; ping-pong.

Data set [6] deals with T3, ScGrx7. Kind of data set: coupled NADPH/glutathione reductase assay, […] nm, HEDS assay. In kind it is biochemical. As to conditions: varied HEDS 90-920 uM at fixed GSH 0.3-1.5 mM; 0.1 M Tris/HCl, 1 mM EDTA, pH 8.0, 25 C; sequential pattern.
The target in data set [7] is T3, ScGrx7. Nature of the data set: inhibition of HEDS or GSSEtOH assay. To be noted: up to 10 mM inhibitor; weak competitive inhibitor; HEDS or GSSEtOH as disulfide substrate with GSH. In kind it is biochemical.
Substrate in data set [8]: N[C@@H](CCC(=O)N[C@@H](CS)C(=O)NCC(=O)O)C(=O)O
Kind of data set: purified protein, by the assay type. Details: HEDS oxidoreductase assay, glutathione reductase coupled, NADPH consumption at 340 nm, pH 8.0, 25 °C. To be noted: pH 8.0; 25.0 °C.

Substrate in data set [9]: OCCSSCCO
Kind of data set: purified protein, by the assay type. Further details: HEDS oxidoreductase assay, glutathione reductase coupled, NADPH consumption at 340 nm, pH 8.0, 25 °C. To be noted: pH 8.0; 25.0 °C.

Substrate in data set [10]: N[C@@H](CCC(=O)N[C@@H](CS)C(=O)NCC(=O)O)C(=O)O
Kind of data set: purified protein, by the assay type. Further details: HEDS assay, GR-coupled NADPH consumption at 340 nm, steady-state kinetics. As to conditions: pH 8.0; 25.0 °C.

Substrate in data set [11]: OCCSSCCO
Kind of data set: purified protein, by the assay type. To be noted: pH 8.0; 25.0 °C. Details: HEDS assay, GR-coupled NADPH consumption at 340 nm, steady-state kinetics.

As for `N[C@@H](CCC(=O)N[C@@H](CSSC[C@H](N)C(=O)O)C(=O)NCC(=O)O)C(=O)O` [GSSCys], the Km app entry in [1] was “all K105X mutants had increased Km ^app(GSSCys) values”; in [2], “Km ^app values for GSSCys and GSH were reciprocally doubled and halved, respectively”; in data set [3], “Selected kcat ^app and Km ^app values of ScGrx7 wild-type enzyme and K105X mutants”; in [4] it was “Km ^app values for GSSCys and GSH were reciprocally doubled and halved, respectively”; in data set [5] it was “all K105X mutants had increased Km ^app(GSSCys) values”.

Take `OCCSSCCO` [HEDS]: the Km app entry in data set [6] was “Selected kcat ^app and Km ^app values of ScGrx7 wild-type enzyme and K105X mutants”.

As for `CC[C@H](NC(=O)CC[C@H](N)C(=O)O)C(=O)NCC(=O)O` [ophthalmic acid, L-γ-glutamyl-L-α-aminobutyrylglycine] (γGlu-[Abu]-Gly-OH), the “% reduction of reaction velocity at up to 10 mM” value in [7] is given as 10–20%.

B1: ScGrx7 (Saccharomyces cerevisiae S288C) (protein)
chain: T1 sequence (P38068 33-203 K105E) with E73K
notes: N-terminal MRGS(H)6 tag kept, E. coli XL1-Blue, pQE30/SCGRX7 double stop-codon construct
As to B1, the Km in data set [8] is 1200 ± 100 µM and 2300 ± 500 µM; in data set [9], 2300 ± 700 µM and 1500 ± 200 µM; in data set [10], 1210 ± 200 µM and 1230 ± 150 µM and 1120 ± 110 µM; in data set [11] it was 2050 ± 200 µM and 1820 ± 300 µM and 3720 ± 1100 µM.
